Results from patent publication US9452988B2, “Bendamustine derivatives and methods of using same” (Ignyta, Inc., priority 2012, dated 2016).
Read-outs that look alike come from different tables or passages of the source. Marks after values point to notes of the source that are not given here.

Columns and labels:
[1] = tested on: MB-231 (HBC); experiment: MTS cell assay, MB-231; assay type: cell-based, Human; conditions: Homo sapiens, 72 hours
Experimental: Charles River Labs athymic nude mice bearing MDA-MB-231 breast carcinoma cell line subcutaneous xenografts (5×10^6 cells in matrigel) were sacrificed to make a tumor isolate. Using sterile instruments and working aseptically, the tumors were removed from the euthanized animal. The tumor was placed in a 50 mL sterile conical tube and 5 mL of trypsin was added. The tumor was cut into small pieces and incubated at 37° C. for 30 minutes. After incubation, a cell strainer was placed on a second, sterile, 50 mL conical tube and the contents of the first tube were placed in the cell strainer. The tissue was forced through the filter using the flat end of a syringe plunger. The cell strainer was washed with 5 mLs of media containing FBS. The cells were spun down and the supernatant was discarded. The cells were resuspended in 20 mLs of complete media containing P/S and placed in a 75 cm flask.
(§1) Human carcinoma cells (2,000 cells/well) were incubated with the desired concentration of the test molecule (0-200 μM) for 72 hours. The cells were then incubated with MTS solution (Promega) for 1-2 hours, and the compounds effects on cell proliferation was determined by measuring the absorbance at 490 nm. Cell growth was expressed as a percent of the appropriate control (placebo). […] All data reported was the mean±SE of three independent experiments.

[2] = tested on: H-460 (NSCLC); experiment: MTS cell assay, H-460; assay type: cell-based, Human; conditions: Homo sapiens, NCI-H460, 72 hours
Experimental: as §1

[3] = tested on: MDA-MB-231 xenografts; experiment: Nude mouse MDA-MB-231 tumor efficacy study; assay type: in vivo, athymic nude mice; conditions: tail vein day 1 and 2
Experimental: Charles River Labs athymic nude mice were subcutaneous injected with 5×10^6 human tumor cells in matrigel. The tumor volume was monitored until an average tumor size of ˜150 mm^3 was obtained in the mouse population The mice were then randomized in to one of the nine treatment groups (summarized in table below) with a population of 10 mice per group (n=10). Each of the formulations were dosed at 100 μL fixed volume via tail vein injection on day 1 and day 2 of the study. Mice were weighed and the tumor volume measured every 3-4 days for 3 weeks of the study duration.

[4] = Tumor and plasma levels, MDA-MB-231 tumor efficacy PK group; conditions: athymic nude, mouse, in vivo
Experimental: (§2) A portion of the tumor bearing mice were dosed as a satellite PK group. Each group was dosed as described for the tumor efficacy group, however the PK group was euthanized and tissue samples collected at 1, 3 and 6 hours post dosing on day 2. The tissues collected included blood, lung, liver and tumor. Samples were analyzed for bendamustine HCl and the corresponding ester analogue as described in the LC-MS protocol section.
(§3) Plasma and other tissues were prepared for high performance liquid chromatography (HPLC)/mass spectrometric analysis according to a standard protocol following protein precipitation with acetonitrile containing an internal standard. The samples were then analyzed for both bendamustine HCl and bendamustine esters of the invention and alprenolol (internal standard) via HPLC coupled with tandem mass spectrometry. Tissue samples were homogenized in sodium phosphate buffer and the value obtained from the assay was multiplied by 3 to correct for dilution during processing.

[5] = tested on: H460 tumor cells (large cell lung cancer); experiment: Nude mouse H460 tumor efficacy study; assay type: in vivo, nu/nu mouse; conditions: tail vein
Experimental: 2×10^6 cells/100 ul in the mix of medium and Matrigel (1:1 ratio) solution was injected into right back flank of each nu/nu mouse. The implanted mice were monitored and measured with electric calipers. The study started when the tumors reached ˜150 mm^3 in size. The mice were measured and randomized into 9 groups with 10 mice in each group per the below table: […]

[6] = Tumor and plasma levels, H460 tumor efficacy PK group; conditions: nu/nu, mouse, in vivo
Experimental: The formulations were administrated as 100 μL dose volume through tail vein injection within 30 minutes after compounds were formulated. All the mice were weighed and tumors measured twice weekly. At the last day of the study, plasma, tumor, lung, liver, spleen, left kidney, brain and legs were collected and quickly frozen for further analysis two hours post-dosing.
as §2, §3

[7] = tested on: RPMI 8226 (Human Plasmacytoma, Myeloma B Cells)
Experimental: Cells (originated from ATCC) were cultured on RPMI medium. Cell suspension was centrifuged and resuspended in 50% Matrigel/HBSS to a final concentration of 7×10^7 cells/ml. The suspension was implanted s.c. in the right flank of the anesthetized mouse at a volume of 100 μl.
Seven ml saline were added to the original vial containing 3.5 mg powder resulting in 0.5 mg/ml. Three ml of this solution were added to 27 ml saline to receive 0.05 mg/ml concentration.
bendamustine preparation: 13.5 mg was dissolved in 3.6 ml of 1:1 mixture of 0.9% saline/5% mannitol just before the treatment. 1.05 ml of this solution was added to 0.95 ml diluent for 2 mg/ml solution.
1.05 ml of this solution was added to 0.95 ml diluent for 2 mg/ml solution.
On day 21, mice were sorted by the optimal average tumor volume (˜150 mm^3) and were allocated into eight groups of 9 mice each.
[formula] The analysis of weight gain and tumor volume progression was made using one-way ANOVA followed by Tukey post-hoc comparisons. Results

[8] = reported; cited from earlier work
[9] = CD-1 mice plasma pharmacokinetics, bendamustine C14 ester albumin nanoparticle i.v.; assay type: in vivo; conditions: mouse, iv; for Vd: Mean n = 3; for AUC(0-t): Mean n = 3, read-out: AUC0-6 of C14 Ester in plasma; for AUC(0-inf): Mean n = 3, read-out: AUC0-∞ of C14 Ester in plasma; for clearance: Mean n = 3, read-out: CL of C14 Ester; for half-life: Mean n = 3, read-out: t1/2 of C14 Ester in plasma (converted)
Experimental: Another embodiment of the invention, bendamustine C14 ester was formulated into a nanoparticle intraveneous formulation according to the methods described above and administered to CD-1 mice. The amount of bendamustine (BM1) and bendamustine C14 ester was determined in the mice plasma.

[10] = Solution (TREANDA), 37.5 mg/kg Free Base Eq.
[11] = 20 mg/kg iv on days 1 and 2, day 46
[12] = 37.5 mg/kg iv on days 1 and 2, day 46
[13] = 80 mg/kg, Ester level in plasma at 1 hour, HSA nanoparticle
[14] = 80 mg/kg, Ester level in plasma at 1 hour, Solution
[15] = 80 mg/kg, Ester level in tumor at 1 hour, HSA nanoparticle
[16] = 80 mg/kg, Ester level in tumor at 1 hour, Solution
[17] = HSA nanoparticle, 80 mg/kg Free Base Eq.
[18] = Solution, 80 mg/kg Free Base Eq.

In the case of `Cn1c(CCCC(=O)O)nc2cc(N(CCCl)CCCl)ccc21` [Bendamustine, 4-[5-[bis(2-chloroethyl)amino]-1-methylbenzimidazol-2-yl]butanoic acid], the IC50 [1] is reported as 13 to 16 µM, the IC50 [2] is reported as 4 to 26 µM and the “% Morbidity” value ([3]; Solution, 37.5 mg/kg) is reported as 10%. For the same molecule, the “% Mortality” value ([3]; Solution, 37.5 mg/kg) was 0%, the “% Tumor Inh.” value ([3]; Solution, 37.5 mg/kg) was 77% and the concentration at 1 h ([4]; 37.5 mg/kg, BM1 level in plasma at 1 hour, Solution) was 906 ng/mL. For the same molecule, the concentration at 1 h ([4]; 37.5 mg/kg, BM1 level in tumor at 1 hour, Solution) was 558 ng/mL, the “% Morbidity” value [5, 10] was 0/0% and the “% Mortality” value [5, 10] was 0/0%. For the same molecule, the “% Tumor Inh.” value [5, 10] was 41.5%, the concentration at 1 h ([6]; 37.5 mg/kg, BM1 level in plasma at 1 hour, Solution (TREANDA)) was 1550 ng/mL and the concentration at 1 h ([6]; 37.5 mg/kg, BM1 level in tumor at 1 hour, Solution (TREANDA)) was 1470 ng/mL. The “Max BW (mean) reduction” value ([7]; 20 mg/kg iv on days 1 and 2) was −2.7%, the “No. of TRD” value ([7]; 20 mg/kg iv on days 1 and 2) was 0 and the “No. og nTRD” value ([7]; 20 mg/kg iv on days 1 and 2) was 0. The “% TGI” value [7, 11] was 66*** %, the “No. of CR” value [7, 11] was 0 and the “No. of PR” value [7, 11] was 0. For the same molecule, the “mean tumor volume, (mean ± se)” value [7, 11] was 205 ± 44, the “Max BW (mean) reduction” value ([7]; 37.5 mg/kg iv on days 1 and 2) was −6.2% and the “No. of TRD” value ([7]; 37.5 mg/kg iv on days 1 and 2) was 0. For the same molecule, the “No. og nTRD” value ([7]; 37.5 mg/kg iv on days 1 and 2) was 0, the “% TGI” value [7, 12] was 81% and the “No. of CR” value [7, 12] was 0. The “No. of PR” value [7, 12] was 0, the “mean tumor volume, (mean ± se)” value [7, 12] was 113 ± 23 and the half-life in vivo [8] was 6 to 10 min.
In the case of `COC(=O)CCCc1nc2cc(N(CCCl)CCCl)ccc2n1C` [—CH3, 4-{5-[Bis-(2-chloro-ethyl)-amino]-1-methyl-1H-benzoimidazol-2-yl}-butyric acid methyl ester], the IC50 [1] is reported as 66 µM, the IC50 [2] is reported as 1.2 µM and the melting point is reported as 60 to 63 °C (dec.).
With `CCCCCCCCCCCCCCOC(=O)CCCc1nc2cc(N(CCCl)CCCl)ccc2n1C` [Bendamustine C14 Ester, 4-{5-[Bis-(chloroethyl)-amino]-1-methyl-1H-benzimidazol-2-yl}butyric acid tetradecyl ester] the IC50 [1] was greater than 200 µM, the IC50 [2] was 130 µM and the “% Morbidity” value ([3]; HSA nanoparticle, 80 mg/kg) was 60%. The “% Mortality” value ([3]; HSA nanoparticle, 80 mg/kg) was 0%, the “% Tumor Inh.” value ([3]; HSA nanoparticle, 80 mg/kg) was 86.5% and the “% Morbidity” value ([3]; Solution, 80 mg/kg) was 40%. For the same molecule, the “% Mortality” value ([3]; Solution, 80 mg/kg) was 0%, the “% Tumor Inh.” value ([3]; Solution, 80 mg/kg) was 90% and the concentration at 1 h [4, 13] was 5730 ng/mL. It also gave a concentration at 1 h [4, 14] of 14 ng/mL, a concentration at 1 h [4, 15] of 10400 ng/mL and a concentration at 1 h [4, 16] of 396 ng/mL. For the same molecule, the “% Morbidity” value [5, 17] was 10%, the “% Mortality” value [5, 17] was 0% and the “% Tumor Inh.” value [5, 17] was 40%. For the same molecule, the “% Morbidity” value [5, 18] was 100%, the “% Mortality” value [5, 18] was 40% and the “% Tumor Inh.” value [5, 18] was 81%. It also gave a concentration at 1 h [6, 13] of 3650 ng/mL, a concentration at 1 h [6, 14] of 32200 ng/mL and a concentration at 1 h [6, 15] of 4570 ng/mL. For the same molecule, the concentration at 1 h [6, 16] was 8570 ng/mL, the Vd ([9]; 30 mg/kg, 30 mg-eq/kg) was 3.2 L/kg and the AUC(0-t) ([9]; 30 mg/kg, 30 mg-eq/kg) was 31700 ng·h/mL. It also gave an AUC(0-inf) ([9]; 30 mg/kg, 30 mg-eq/kg) of 31700 ng·h/mL, a clearance ([9]; 30 mg/kg, 30 mg-eq/kg) of 24 mL/min/kg and a half-life ([9]; 30 mg/kg, 30 mg-eq/kg) of 1.52 h. It also gave a Vd ([9]; 55 mg/kg, 55 mg-eq/kg) of 2.5 L/kg, an AUC(0-t) ([9]; 55 mg/kg, 55 mg-eq/kg) of 48900 ng·h/mL and an AUC(0-inf) ([9]; 55 mg/kg, 55 mg-eq/kg) of 49000 ng·h/mL. The clearance ([9]; 55 mg/kg, 55 mg-eq/kg) was 29 mL/min/kg, the half-life ([9]; 55 mg/kg, 55 mg-eq/kg) was 0.98 h and the Vd ([9]; 80 mg/kg, 80 mg-eq/kg) was 5.2 L/kg. The AUC(0-t) ([9]; 80 mg/kg, 80 mg-eq/kg) was 46300 ng·h/mL, the AUC(0-inf) ([9]; 80 mg/kg, 80 mg-eq/kg) was 46500 ng·h/mL and the clearance ([9]; 80 mg/kg, 80 mg-eq/kg) was 56 mL/min/kg. The half-life ([9]; 80 mg/kg, 80 mg-eq/kg) was 1.09 h.
